Measured values reported in patent US4906612A (priority 1988, dated 1990).
Values after ≈ are worked out from the molar mass of the structure shown. Read-outs that look alike come from different tables or passages of the source.

Experiments:
[1] = LD50 when intravenously injected in male mice; type: in vivo
Excerpt: The growth-promoting agent of the present invention not only promotes the growth of animals, but also improves feed utilization efficiency. The agent is also effective for the treatment of bacterial diseases.

[2] = test system: Cl. perfringens; type: cell-based, Clostridium perfringens; conditions: GAM agar, 24 hours at 37° C.
[3] = Growth promoting effect on chicks, 20 ppm in feed for 10 days (Table 2); type: in vivo; conditions: for Body weight gain, mean value ± standard error: chicks 8 to 18 days of age, 20 ppm in feed × 10 days; for Feed efficiency: chicks, no antibiotic group 1.70; for Body weight gain index: no antibiotic group = 100.0
Procedure: Growth promoting effect of PA-42867-A on chicks (8 days of age, Abaeker species) was determined using a known antibiotic, Thiopeptin, as a control. PA-42867-A and Thiopeptin were added to an antibiotic-free feed mash (crude protein content (CP): 18%) at a concentration of 20 ppm, and the chicks were raised for 10 days with the resulting feed according to the battery method. Specifically describing the method of experiment, newly hatched chicks were fed until 8 days of age with a feed ration of 23% CP by the flat feeding method, at which time the chicks were divided into three groups each containing 25-26 chicks (males and females, 12-13 chicks each) so that the average weights of the chicks in all groups were nearly the same. PA-42867-A group received 20 ppm of the antibiotic a day for 10 days, Thiopeptin group received 20 ppm for 10 days, and the control group received antibiotic-free feed of 18% CP for 10 days. The above feeding was conducted after dividing the chicks in each of these groups into sub-groups of 6-7 chicks and putting each sub-group in a cage (435×600×410 mm). The feeding was conducted for 10 days (until 18 days of age) at an environmental temperature of 26°±2°C. The effectiveness of the drug was evaluated based on the body weight gain and the feed efficiency observed during the 10 days period of the experiment.

[4] = Growth promoting effect on chicks, 20 ppm in feed for 13 days (Table 3); type: in vivo; conditions: for Feed efficiency, 10 days / Feed efficiency, 13 days / Body weight gain ± standard error, 13 days / Body weight gain ± standard error, 10 days: 20 ppm in feed; for Feed efficiency, 10 days / Body weight gain comparative index, 10 days: 10th day; for Feed efficiency, 10 days: no antibiotic group 1.69; for Feed efficiency, 13 days / Body weight gain comparative index, 13 days: 13th day; for Feed efficiency, 13 days: no antibiotic group 1.76; for Body weight gain ± standard error, 13 days: chicks 8-21 days of age, measured on the 13th day; for Body weight gain ± standard error, 10 days: chicks from 8 days of age, measured on the 10th day; for Body weight gain comparative index, 10 days / Body weight gain comparative index, 13 days: weight gain of the control group regarded as 100
Procedure: In the same manner, another growth promoting tests were conducted on des-(4-epi-vancosaminyl)PA-42867-A and des-(4-epi-vancosaminyl-0-glucosyl)PA-42867-A by giving 20 ppm of the test drug to chicks of 8-21 days of age for 13 days, using Thiopeptin as a control.
The newly hatched chicks were fed until eight days of age with a feed mash (crude protein content (CP):23%) without addition of any antibiotic by means of the flat feeding. Then, the chicks were divided into four groups each containing 24 chicks (males and females, 12 each). Each group was placed in four cages after dividing into four unisexual sub-groups, each consisting of 6-7 chicks, and raised for 13 days with an animal feed of CP 18% with or without antibiotics. Thus, each of four groups received 20 ppm of des-(4-epi-vancosaminyl)PA-42867-A, 20 ppm of des(4-epi-vancosaminyl-0-glucosyl)PA-42867-A, 20 ppm of Thiopeptin, and no antibiotic, respectively.
Body weight gain and feed efficiency were measured on the 10th and the 13th day.

| Compound | LD50 [1] [mg/kg] | MIC ([2]; strain 3C-01, origin chicken) [µg/mL] | MIC ([2]; strain 6B-10, origin cow) [µg/mL] | MIC ([2]; strain 9C-02, origin chicken) [µg/mL] | MIC ([2]; strain 02441, origin chicken) [µg/mL] | MIC ([2]; strain CW-1970, origin cow) [µg/mL] | MIC ([2]; strain FC 2208/75, origin cow) [µg/mL] | MIC ([2]; strain NCTC-8239, origin cow) [µg/mL] | MIC ([2]; strain NCTC-8798, origin cow) [µg/mL] | MIC ([2]; strain NCTC-10239, origin cow) [µg/mL] | MIC ([2]; strain S-79, origin cow) [µg/mL] | MIC ([2]; strain SP07, origin chicken) [µg/mL] | Feed efficiency compared with the group raised with antibiotic-free feed (in words) ([3]; 20 ppm × 10 days) | Body weight gain, mean value ± standard error [3] [g] | Feed efficiency, 10 days [4] | Feed efficiency, 13 days [4] | Body weight gain ± standard error, 13 days [4] [g] | Body weight gain ± standard error, 10 days [4] [g] | Body weight gain comparative index, 10 days [4] | Body weight gain comparative index, 13 days [4] | other results |
| --- | --- | --- | --- | --- | --- | --- | --- | --- | --- | --- | --- | --- | --- | --- | --- | --- | --- | --- | --- | --- | --- |
| CNC(CC(C)C)C(=O)NC1C(=O)NC(CC(N)=O)C(=O)NC2C(=O)NC3C(=O)NC(C(=O)NC(C(=O)O)c4cc(O)cc(O)c4-c4cc3ccc4O)C(OC3CC(C)(N)C(O)C(C)O3)c3ccc(c(Cl)c3)Oc3cc2cc(c3OC2OC(CO)C(O)C(O)C2OC2CC(C)(N)C(O)C(C)O2)Oc2ccc(cc2)C1O (stereo not drawn) [Compound 1, PA-42867-A] | 1955 | 0.39 (≈ 0.25 µM) | 0.2 (≈ 0.128 µM) | 0.2 (≈ 0.128 µM) | 0.39 (≈ 0.25 µM) | 0.39 (≈ 0.25 µM) | 0.39 (≈ 0.25 µM) | 0.39 (≈ 0.25 µM) | 0.39 (≈ 0.25 µM) | 0.39 (≈ 0.25 µM) | 0.39 (≈ 0.25 µM) | 0.39 (≈ 0.25 µM) | better results in feed efficiency | 332.0 ± 6.71 | 1.54 | 1.66 | 442.6 ± 7.8 | 328.9 ± 6.3 | 105.4 | 103.9 | Body weight gain compared with the no-antibiotic control group and the Thiopeptin group (in words) ([3]; 20 ppm × 10 days, p<0.01): significantly high body weight gain; Feed efficiency ([3]; 20 ppm × 10 days): 1.53; Body weight gain index ([3]; 20 ppm × 10 days): 110.0 |
| CNC(CC(C)C)C(=O)NC1C(=O)NC(CC(N)=O)C(=O)NC2C(=O)NC3C(=O)NC(C(=O)NC(C(=O)O)c4cc(O)cc(O)c4-c4cc3ccc4O)C(OC3CC(C)(N)C(O)C(C)O3)c3ccc(c(Cl)c3)Oc3cc2cc(c3OC2OC(CO)C(O)C(O)C2O)Oc2ccc(cc2)C1O (stereo not drawn) [Compound 2, des-(4-epi-vancosaminyl) PA-42867-A] | > 3000 | 1.56 (≈ 1.1 µM) | 1.56 (≈ 1.1 µM) | 1.56 (≈ 1.1 µM) | 1.56 (≈ 1.1 µM) | 1.56 (≈ 1.1 µM) | 1.56 (≈ 1.1 µM) | 1.56 (≈ 1.1 µM) | 1.56 (≈ 1.1 µM) | 1.56 (≈ 1.1 µM) | 0.78 (≈ 0.551 µM) | 1.56 (≈ 1.1 µM) | – | – | 1.62 | 1.66 | 447.4 ± 11.5 | 324.6 ± 8.3 | 104.0 | 105.0 | – |
| CNC(CC(C)C)C(=O)NC1C(=O)NC(CC(N)=O)C(=O)NC2C(=O)NC3C(=O)NC(C(=O)NC(C(=O)O)c4cc(O)cc(O)c4-c4cc3ccc4O)C(OC3CC(C)(N)C(O)C(C)O3)c3ccc(c(Cl)c3)Oc3cc2cc(c3O)Oc2ccc(cc2)C1O (stereo not drawn) [Compound 3, des-(4-epi-vancosaminyl-0-glucosyl)PA-42867-A] | 205 | 0.78 (≈ 0.623 µM) | 0.78 (≈ 0.623 µM) | 0.78 (≈ 0.623 µM) | 0.78 (≈ 0.623 µM) | 0.78 (≈ 0.623 µM) | 0.78 (≈ 0.623 µM) | 0.78 (≈ 0.623 µM) | 0.78 (≈ 0.623 µM) | 0.78 (≈ 0.623 µM) | 0.39 (≈ 0.311 µM) | 0.78 (≈ 0.623 µM) | – | – | – | – | – | – | – | – | – |
| Thiopeptin [reference compound] | – | – | – | – | – | – | – | – | – | – | – | – | better results in feed efficiency | 313.7 ± 8.80 | 1.61 | 1.70 | 445.5 ± 11.1 | 319.5 ± 7.5 | 102.4 | 104.6 | Feed efficiency ([3]; 20 ppm × 10 days): 1.58; Body weight gain index ([3]; 20 ppm × 10 days): 103.9 |
